Measured values: the NIST ThermoML archive (doi:10.1016/j.jct.2014.12.011)

Assay: mn = molality of the nth substance listed, in mol/kg
Settings: 100 kPa, Liquid, Alternating current cell with electrodes

CCCCCCCCCC(=O)[O-].[Na+] [sodium decanoate] + O
electrical conductivity [S/m]
Settings | 278.15 K | 288.15 K | 298.15 K | 308.15 K | 318.15 K | 328.15 K
m1 = 0.01638 | 0.0626 | 0.083 | 0.106 | 0.131 | 0.157 | 0.184
m1 = 0.03189 | 0.116 | 0.155 | 0.198 | 0.244 | 0.292 | 0.344
m1 = 0.04823 | 0.17 | 0.226 | 0.288 | 0.356 | 0.428 | 0.504
m1 = 0.06109 | 0.21 | 0.279 | 0.357 | 0.441 | 0.53 | 0.625
m1 = 0.07519 | 0.2524 | 0.336 | 0.429 | 0.531 | 0.639 | 0.753
m1 = 0.09179 | 0.3003 | 0.399 | 0.5112 | 0.632 | 0.7605 | 0.896
m1 = 0.1079 | 0.344 | 0.459 | 0.584 | 0.719 | 0.865 | 1.021
m1 = 0.1249 | 0.388 | 0.5125 | 0.647 | 0.795 | 0.958 | 1.135
m1 = 0.1434 | 0.429 | 0.559 | 0.705 | 0.869 | 1.05 | 1.25
m1 = 0.1608 | 0.46 | 0.599 | 0.758 | 0.936 | 1.134 | 1.35
m1 = 0.1798 | 0.489 | 0.6405 | 0.8135 | 1.008 | 1.224 | 1.46
m1 = 0.1991 | 0.519 | 0.6831 | 0.8715 | 1.08 | 1.316 | 1.57
m1 = 0.2177 | 0.547 | 0.724 | 0.927 | 1.15 | 1.405 | 1.68
m1 = 0.2366 | 0.576 | 0.766 | 0.984 | 1.228 | 1.5 | 1.78
m1 = 0.2557 | 0.605 | 0.809 | 1.043 | 1.303 | 1.59 | 1.89
